In patent publication US9248122B2, “Heteroquinoline-3-carboxamides as KCNQ2/3 modulators” (GRÜNENTHAL GMBH, priority 2012, dated 2016):
pEC50: −log10 of the molar value.

What was measured:
KCNQ2/3 channels = target: T1, KCNQ2/3 channels (Homo sapiens, UniProt O43525+O43526); assay: Fluorescence assay using a voltage sensitive dye (fluorimetry); type: cell-based; conditions: CHO-K1 cells expressing KCNQ2/3 channels; for Emax: relative to retigabine = 100%, read-out: Fluorimetry % efficacy (retigabine = 100%)
T1 construct: expressed in transfected cells
Experimental: Pharmacological Experiments Method I. Fluorescence Assay Using a Voltage Sensitive Dye
Human CHO—K1 cells expressing KCNQ2/3 channels are cultivated adherently at 37° C., 5% CO2 and 95% humidity in cell culture bottles (e.g. 80 cm^2 TC flasks, Nunc) with DMEM-high glucose (Sigma Aldrich, D7777) including 10% FCS (PAN Biotech, e.g. 3302-P270521) or alternatively MEM Alpha Medium (lx, liquid, Invitrogen, #22571), 10% fetal calf serum (FCS) (Invitrogen, #10270-106, heat-inactivated) and the necessary selection antibiotics.
Before being sown out for the measurements, the cells are washed with a 1×DPBS buffer without Ca^2+/Mg^2+ (e.g. Invitrogen, #14190-094) and detached from the bottom of the culture vessel by means of Accutase (PAA Laboratories, #L11-007) (incubation with Accutase for 15 min at 37° C.). The cell count then present is determined using a CASY™ cell counter (TCC model, Scharfe System) in order subsequently to apply, depending on the density optimization for the individual cell line, 20,000-30,000 cells/well/100 μl of the described nutrient medium to 96-well measuring plates of the Corning™ CeIIBIND™ type (Flat Clear Bottom Black Polystyrene Microplates, #3340). Incubation is then carried out for one hour at room temperature, without gassing or adjusting the humidity, followed by incubation for 24 hours at 37° C., 5% CO2 and 95% humidity.
The voltage-sensitive fluorescent dye from the Membrane Potential Assay Kit (Red™ Bulk format part R8123 for FLIPR, MDS Analytical Technologies™) is prepared by dissolving the contents of a vessel Membrane Potential Assay Kit Red Component A in 200 ml of extracellular buffer (ES buffer, 120 mM NaCl, 1 mM KCl, 10 mM HEPES, 2 mM CaCl2, 2 mM MgCl2, 10 mM glucose; pH 7.4). After removal of the nutrient medium, the cells are washed with 200 μl of ES buffer, then covered with a layer of 100 μl of the dye solution prepared above and incubated for 45 min at room temperature with the exclusion of light.
The fluorescence measurements are carried out with a BMG Labtech FLUOstar™, BMG Labtech NOVOstar™ or BMG Labtech POLARstar™ instrument (525 nm excitation, 560 nm emission, Bottom Read mode). After incubation of the dye, 50 μl of the test substances in the desired concentrations, or 50 μl of ES buffer for control purposes, are introduced into separate cavities of the measuring plate and incubated for 30 min at room temperature while being shielded from light. The fluorescence intensity of the dye is then measured for 5 min and the fluorescence value F1 of each well is thus determined at a given, constant time. 15 μl of a […] KCl solution ([…]) are then added to each well. The change in fluorescence is subsequently measured until all the relevant measured values have been obtained (mainly 5-30 min). At a given time after KCl application, a fluorescence value F2 is determined, in this case at the time of the fluorescence peak.
For calculation, the fluorescence intensity F2 is corrected for the fluorescence intensity F1, and the activity (ΔF/F) of the target compound on the potassium channel is determined as follows:
In order to determine whether a substance has agonistic activity,
A substance has an agonistic activity on the potassium channel if
Calculations of EC50 and IC50 values are carried out with the aid of ‘Prism v4.0’ software (GraphPad Software™)

[1] = tested on: withdrawal reflex of the rat tail (tail flick); assay: Low-intensity tail flick test (rat); type: in vivo; conditions: dose 10 mg/kg
Experimental: Method II. Low-Intensity Tail Flick Test (Rat)
In the low-intensity tail flick test, the determination of the antinociceptive effect of the compounds according to the invention towards an acute noxious thermal stimulus is carried out by measuring the withdrawal reflex of the rat tail (tail flick) in response to a radiant heat beam (analgesia meter; model 2011 of the company Rhema Labortechnik, Hofheim, Germany) according to the method described by D'Amour and Smith (J. Pharm. Exp. Ther. 72, 74 79 (1941). To this end, the rats were placed in a plexiglas restrainer, and a low-intensity radiant heat beam (48° C.) was focused onto the dorsal surface of the tail root. The stimulus intensity was adjusted to result in a mean pre-drug control withdrawal latency of about 7 s, thus also allowing a supraspinal modulation of the spinally mediated acute nociceptive reflex. […] Before administration of a compound according to the invention, the animals were pre-tested twice in the course of five minutes and the mean of these measurements was calculated as the pre-test mean. The antinociceptive effect was determined at 20, 40 and 60 min after peroral compound administration. The antinociceptive effect was calculated based on the increase in the tail withdrawal latency according to the following formula and is expressed as percentage of the maximum possible effect (MPE [%]): MPE=[(T1−T0)/(T2−T0)]*100 […]

Row | Structure (SMILES) | pEC50 (KCNQ2/3 channels) | Emax (KCNQ2/3 channels) [%] | Low intensity tail flick, rat, peroral, ED50 or MPE (dose) [mg/kg] [1]
1 | CCSc1nc2cc(C(F)(F)F)cnc2c(C)c1C(=O)NCc1cccc(F)c1 [Example 1, 2-Ethylsulfanyl-N-[(3-fluorophenyl)-methyl]-4-methyl-7-(trifluoromethyl)-[1,5]naphthyridine-3-carboxylic acid amide] | 7.08 | 156 | –
2 | CCSc1nc2cccnc2c(C)c1C(=O)NCc1ccc(F)cc1 [Example 9, 2-Ethylsulfanyl-N-[(4-fluorophenyl)-methyl]-4-methyl-[1,5]naphthyridine-3-carboxylic acid amide] | – | 6 | –
3 | CCSc1nc2ncccc2c(C)c1C(=O)NCc1ccc(F)cc1 [Example 16, 2-Ethylsulfanyl-N-[(4-fluorophenyl)-methyl]-4-methyl-[1,8]naphthyridine-3-carboxylic acid amide] | – | 10 | –
4 | CCSc1nc2cnccc2c(C)c1C(=O)NCc1cccc(F)c1 [Example 2, 2-Ethylsulfanyl-N-[(3-fluorophenyl)-methyl]-4-methyl-[1,7]naphthyridine-3-carboxylic acid amide] | 5.66 | 62 | –
5 | CCSc1nc2cccnc2c(C)c1C(=O)NCc1cccc(F)c1 [Example 8, 2-Ethylsulfanyl-N-[(3-fluorophenyl)-methyl]-4-methyl-[1,5]naphthyridine-3-carboxylic acid amide] | – | 9 | –
6 | CCOc1nc2cc(C(F)(F)F)sc2c(C)c1C(=O)NCc1cccc(F)c1 [Example 5, 5-Ethoxy-N-[(3-fluorophenyl)-methyl]-7-methyl-2-(trifluoromethyl)-thieno[3,2-b]pyridine-6-carboxylic acid amide] | 7.29 | 121 | –
7 | CCSc1nc2ccncc2c(C)c1C(=O)NCc1cccc(F)c1 [Example 13, 2-Ethylsulfanyl-N-[(3-fluorophenyl)-methyl]-4-methyl-[1,6]naphthyridine-3-carboxylic acid amide] | – | 32 | –
8 | CCSc1nc2ccsc2c(C)c1C(=O)NCc1cccc(F)c1 [Example 14, 5-Ethylsulfanyl-N-[(3-fluorophenyl)-methyl]-7-methyl-thieno[3,2-b]pyridine-6-carboxylic acid amide] | 6.19 | -39 | –
9 | CCSc1nc2ncccc2c(C)c1C(=O)NCc1cccc(F)c1 [Example 17, 2-Ethylsulfanyl-N-[(3-fluorophenyl)-methyl]-4-methyl-[1,8]naphthyridine-3-carboxylic acid amide] | – | 10 | –
10 | CCSc1nc2sccc2c(C)c1C(=O)NCc1cccc(F)c1 [Example 4, 6-Ethylsulfanyl-N-[(3-fluorophenyl)-methyl]-4-methyl-thieno[2,3-b]pyridine-5-carboxylic acid amide] | – | 31 | –
11 | CCOc1nc2sc(C(F)(F)F)cc2c(C)c1C(=O)NCc1cccc(F)c1 [Example 18, 6-Ethoxy-N-[(3-fluorophenyl)-methyl]-4-methyl-2-(trifluoromethyl)-thieno[2,3-b]pyridine-5-carboxylic acid amide] | 7.20 | 112 | –

Now from value to compound, other results behind:

Row | pEC50 (KCNQ2/3 channels) | Emax (KCNQ2/3 channels) [%] | Structure (SMILES) | Low intensity tail flick, rat, peroral, ED50 or MPE (dose) [mg/kg] [1]
12 | 6.70 | 101 | CCSc1nc2cc(C(F)(F)F)ncc2c(C)c1C(=O)NCc1cccc(F)c1 [Example 11, 2-Ethylsulfanyl-N-[(3-fluorophenyl)-methyl]-4-methyl-7-(trifluoromethyl)-[1,6]naphthyridine-3-carboxylic acid amide] | –
13 | – | 34 | CCSc1nc2ccncc2c(C)c1C(=O)NCc1ccc(F)cc1 [Example 3, 2-Ethylsulfanyl-N-[(4-fluorophenyl)-methyl]-4-methyl-[1,6]naphthyridine-3-carboxylic acid amide] | –
14 | 6.52 | 97 | CCSc1nc2cc(C(F)(F)F)ncc2c(C)c1C(=O)NCc1ccc(F)cc1 [Example 12, 2-Ethylsulfanyl-N-[(4-fluorophenyl)-methyl]-4-methyl-7-(trifluoromethyl)-[1,6]naphthyridine-3-carboxylic acid amide] | –
15 | 6.39 | 132 | CCSc1nc2nc(C(F)(F)F)ccc2c(C)c1C(=O)NCc1ccc(F)cc1 [Example 7, 2-Ethylsulfanyl-N-[(4-fluorophenyl)-methyl]-4-methyl-7-(trifluoromethyl)-[1,8]naphthyridine-3-carboxylic acid amide] | 16 (10) %
16 | 7.00 | 148 | CCSc1nc2cc(C(F)(F)F)cnc2c(C)c1C(=O)NCc1ccc(F)cc1 [Example 10, 2-Ethylsulfanyl-N-[(4-fluorophenyl)-methyl]-4-methyl-7-(trifluoromethyl)-[1,5]naphthyridine-3-carboxylic acid amide] | –
17 | – | 34 | CCSc1nc2cnccc2c(C)c1C(=O)NCc1ccc(F)cc1 [Example 15, 2-Ethylsulfanyl-N-[(4-fluorophenyl)-methyl]-4-methyl-[1,7]naphthyridine-3-carboxylic acid amide] | –
18 | 6.17 | 152 | CCSc1nc2nc(C(F)(F)F)ccc2c(C)c1C(=O)NCc1cccc(F)c1 [Example 6, 2-Ethylsulfanyl-N-[(3-fluorophenyl)-methyl]-4-methyl-7-(trifluoromethyl)-[1,8]naphthyridine-3-carboxylic acid amide] | –
